Test results from ChEMBL document CHEMBL1201862, “PubChem BioAssay data set” (2004).
Calls of active or inactive are those of the source.

Experiments:
[1] = inhibitors of firefly luciferase expression or activity, dose response, H4 neuroglioma cells, luminescence (AID 1990); format: functional, cell-based
HEK293 [2] = assay: NOD1 signaling inhibitors, primary screen, cell-based, luminescence, uHTS (AID 1578); format: functional; conditions: Homo sapiens
HEK293 [3] = assay: cells; format: functional, cell-based; conditions: Homo sapiens
[4] = Luminescence Cell-Based Dose Response HTS to Identify Inhibitors of 5'UTR Stem-Loop Driven Prion Protein mRNA Translation in H4 Neuroglioblastoma Cells. [Related pubchem assays: 1827 (Project Summary), 1813 (Primary HTS)]; format: functional
[5] = inhibitors of SNCA 5'UTR-driven reporter translation, confirmation, H4 neuroglioma cells, luminescence (AID 1988); format: functional, cell-based
HEK293 [6] = assay: cells; format: functional, cell-based; conditions: Homo sapiens; remark: listed apart in the source
HEK293 [7] = assay: NOD2 signaling inhibitors in MDP-stimulated cells, cell-based, uHTS, luminescence (AID 2001); format: functional; conditions: Homo sapiens
[8] = inhibitors of intracellular T. cruzi replication, confirmation, NIH3T3 host cells, beta-gal luminescence (AID 2044); format: functional, cell-based;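 further: intracellular parasites grown in NIH/3T3 mouse fibroblasts as host cells; luminescent beta-galactosidase reporter signal from transgenic T. cruzi replicating inside host cells; inhibitors lower the luminescence signal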
[9] = growth suppression of PTEN-null colon cells, dose response, cell-based, HCT116 PTEN knockout (AID 1047); format: functional;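 further: HCT116 colon tumor cells with PTEN knocked out; cells exposed to compound for 60 hours before readout; potency for loss of cell viability measured by luminescence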
[10] = cytotoxicity toward NIH3T3 fibroblasts, dose response, counter-screen, cell-based, ATP luminescence, mouse fibroblasts (AID 2010); format: functional;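 further: cells exposed to compound for about 90 hours before reading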
[11] = growth suppression of beta-catenin-knockout colon cells, dose response, cell-based, HCT116, human colon tumor (AID 1045); format: functional;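 further: HCT116 colon tumor cells with beta catenin knocked out; cells exposed to compound for 60 hours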
[12] = Luminescence Cell-Based Dose Retest to Confirm Inhibitors of Cancer Stem Cells. [Related pubchem assays (depositor defined):AID2717, AID2721]; format: functional; conditions: Homo sapiens
INS1 = assay: beta cell apoptosis inhibitors, cytokine rescue, dose response, luminescence, retest (AID 449756); format: functional, cell-based; conditions: Rattus norvegicus;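 further: cell death triggered by IL-1 beta plus TNF-alpha plus IFN-gamma mixture; protective hits raise ATP signal compared with cytokine alone wells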
[13] = Shn3 3'UTR reporter inhibitors, dose response, cell-based, Clone20 osteoblasts, firefly luciferase, cherry-picked (AID 624132); format: functional;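 further: firefly luciferase luminescence from reporter carrying the Shn3 3'UTR in osteoblasts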
[14] = HepG2 cell cytotoxicity, dose response, cytotoxicity control for Shn3 inhibitor project, CellTiter-Glo, cherry-picked (AID 624134); format: functional, cell-based
[15] = control 3'UTR Renilla luciferase suppression, dose response, counter-screen for Shn3 inhibitor project, cell-based, Clone20-Shn3RL, cherry-picked (AID 624133); format: functional
[16] = target: Photoreceptor-specific nuclear receptor (Homo sapiens, UniProt Q9Y5X4); format: functional, cell-based;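 further: CHO-S cells with Gal4-NCOR and VP16-NR2E3 two-hybrid luciferase reporter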
[17] = inhibitors of HIV Env-driven cell fusion, dose response, cherry-pick (AID 652057); format: functional, cell-based
[18] = CEM21 lymphoblast cell cytotoxicity, dose response, cytotoxicity control for viral fusion inhibitor project, CellTiter-Glo luminescence, cherry-picked (AID 652042); format: functional, cell-based;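 further: potency for signal decrease meaning cytotoxicity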
[19] = off-target signal loss in HeLa-CEM21 co-culture – HeLa F-luc CTL cells, cherry-picked, counter-screen for HIV-1 Env fusion inhibitor project, dose response (AID 652040); format: functional, cell-based;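 further: potency for signal decrease marking cytotoxic or nonspecific inhibition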
[20] = HEK293T cytotoxicity, dose response, cytotoxicity control for miR-122 modulator project, cell-based, inhibitor set, cherry-pick, set 2 (AID 720697); format: functional
[21] = HEK293T cytotoxicity, dose response, cytotoxicity control for miR-122 modulator project, cell-based, activator set, cherry-pick (AID 720690); format: functional;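 further: HEK293T human cells scored for general mammalian cytotoxicity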
Galanin receptor type 3 = Galanin receptor type 3 (Homo sapiens, UniProt O60755); assay: Fluorescence-based cell-based primary high throughput dose response assay to identify antagonists of the Galanin Receptor 3 (GalR3).; format: functional
cells [22] = format: functional, cell-based; conditions: HEK-CNG
[23] = HeLa cell cytotoxicity, dose response, cytotoxicity control for MgcRacGAP inhibitor project (AID 624300); format: functional
[24] = target: T1, Rac GTPase-activating protein 1 (Homo sapiens, UniProt Q9H0H5); assay: MgcRacGAP GTPase-activating activity inhibitors, confirmation, biochemical, ADP Hunter fluorescence, primary and confirmatory (AID 624330); format: functional
T1 sequence (Q9H0H5 whole entry): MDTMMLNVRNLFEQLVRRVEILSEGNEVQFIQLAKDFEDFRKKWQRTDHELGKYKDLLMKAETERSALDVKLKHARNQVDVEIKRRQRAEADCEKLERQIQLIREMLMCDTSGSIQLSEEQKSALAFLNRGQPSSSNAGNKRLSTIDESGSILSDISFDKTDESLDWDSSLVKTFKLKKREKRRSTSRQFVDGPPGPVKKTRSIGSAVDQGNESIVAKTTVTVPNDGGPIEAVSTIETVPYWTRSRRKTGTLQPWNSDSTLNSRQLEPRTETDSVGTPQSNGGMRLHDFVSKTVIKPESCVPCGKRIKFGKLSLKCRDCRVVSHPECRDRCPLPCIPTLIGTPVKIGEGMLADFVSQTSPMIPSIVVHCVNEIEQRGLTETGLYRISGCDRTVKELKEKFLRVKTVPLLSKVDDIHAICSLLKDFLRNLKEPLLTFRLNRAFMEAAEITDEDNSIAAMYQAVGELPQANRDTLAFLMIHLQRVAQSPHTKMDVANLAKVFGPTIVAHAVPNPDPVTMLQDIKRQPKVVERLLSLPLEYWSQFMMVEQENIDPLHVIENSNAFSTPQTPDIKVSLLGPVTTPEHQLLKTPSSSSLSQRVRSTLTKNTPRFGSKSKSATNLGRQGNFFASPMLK

[25] = AlphaScreen signal interference compounds, dose response, artefact control for ARNT-TACC3 interaction inhibitor project, biochemical, luminescence, cherry-pick (AID 651705); format: functional;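 further: AlphaScreen bead proximity signal that flags compounds interfering with the detection technology; potency reflects signal decrease which marks the compound as an assay artifact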
[26] = target: T2, Histone-lysine N-methyltransferase NSD2 (Homo sapiens, UniProt O96028); format: biochemical
T2 sequence (O96028 whole entry): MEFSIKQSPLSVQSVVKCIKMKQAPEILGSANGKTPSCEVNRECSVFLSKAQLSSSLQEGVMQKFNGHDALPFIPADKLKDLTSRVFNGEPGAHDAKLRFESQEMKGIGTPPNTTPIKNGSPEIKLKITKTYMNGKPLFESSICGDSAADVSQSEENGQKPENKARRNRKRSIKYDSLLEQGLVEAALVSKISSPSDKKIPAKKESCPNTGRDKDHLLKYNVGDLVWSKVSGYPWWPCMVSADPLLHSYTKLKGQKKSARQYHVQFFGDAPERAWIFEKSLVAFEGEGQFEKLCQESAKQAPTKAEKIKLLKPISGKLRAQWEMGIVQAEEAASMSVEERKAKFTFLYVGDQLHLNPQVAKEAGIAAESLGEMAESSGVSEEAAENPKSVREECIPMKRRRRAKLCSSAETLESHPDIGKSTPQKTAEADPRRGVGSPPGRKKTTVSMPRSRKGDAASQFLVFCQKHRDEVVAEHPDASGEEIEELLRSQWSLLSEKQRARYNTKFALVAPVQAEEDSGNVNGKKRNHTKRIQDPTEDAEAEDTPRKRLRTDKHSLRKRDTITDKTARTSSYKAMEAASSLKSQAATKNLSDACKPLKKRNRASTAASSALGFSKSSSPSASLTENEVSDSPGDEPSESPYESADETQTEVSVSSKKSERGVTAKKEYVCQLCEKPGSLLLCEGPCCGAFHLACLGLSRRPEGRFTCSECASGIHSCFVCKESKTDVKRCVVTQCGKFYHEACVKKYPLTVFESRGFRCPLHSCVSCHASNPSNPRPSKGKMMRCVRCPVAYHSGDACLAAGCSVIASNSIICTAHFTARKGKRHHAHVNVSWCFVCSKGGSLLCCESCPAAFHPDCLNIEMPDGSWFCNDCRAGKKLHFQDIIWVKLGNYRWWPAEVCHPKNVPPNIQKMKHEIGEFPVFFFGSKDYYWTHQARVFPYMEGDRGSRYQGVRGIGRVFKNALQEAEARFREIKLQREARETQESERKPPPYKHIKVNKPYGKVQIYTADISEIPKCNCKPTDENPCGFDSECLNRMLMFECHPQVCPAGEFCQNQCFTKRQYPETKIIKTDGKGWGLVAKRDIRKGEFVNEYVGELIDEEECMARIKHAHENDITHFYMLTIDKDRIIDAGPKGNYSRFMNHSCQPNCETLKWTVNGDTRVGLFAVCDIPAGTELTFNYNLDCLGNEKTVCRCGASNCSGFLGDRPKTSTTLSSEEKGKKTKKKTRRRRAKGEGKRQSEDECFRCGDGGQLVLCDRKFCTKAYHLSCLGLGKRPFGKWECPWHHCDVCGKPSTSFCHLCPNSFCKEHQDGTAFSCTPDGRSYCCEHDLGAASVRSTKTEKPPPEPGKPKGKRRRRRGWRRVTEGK

[27] = target: T3, Tyrosyl-DNA phosphodiesterase 2 (Homo sapiens, UniProt O95551); assay: human TDP2 enzyme inhibitors, dose response, biochemical, epi absorbance, IC50 (AID 743297)
T3 sequence (O95551 whole entry): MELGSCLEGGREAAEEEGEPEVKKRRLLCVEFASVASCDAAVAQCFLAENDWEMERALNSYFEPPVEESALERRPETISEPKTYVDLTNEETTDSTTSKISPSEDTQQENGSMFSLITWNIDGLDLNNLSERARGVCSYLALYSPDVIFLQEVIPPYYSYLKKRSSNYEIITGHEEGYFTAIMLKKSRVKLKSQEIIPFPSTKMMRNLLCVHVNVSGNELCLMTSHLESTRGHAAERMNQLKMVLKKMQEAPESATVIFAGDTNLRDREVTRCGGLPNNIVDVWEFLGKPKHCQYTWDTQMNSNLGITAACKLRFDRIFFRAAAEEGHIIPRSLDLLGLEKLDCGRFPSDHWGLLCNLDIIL

cells [28] = format: functional, cell-based
cells [29] = format: functional, cell-based; remark: listed apart in the source
cells [30] = format: functional, cell-based; remark: listed apart in the source
cells [31] = format: functional, cell-based; remark: listed apart in the source

Photoreceptor-specific nuclear receptor, sequence (Q9Y5X4 whole entry, the tested form may be a part): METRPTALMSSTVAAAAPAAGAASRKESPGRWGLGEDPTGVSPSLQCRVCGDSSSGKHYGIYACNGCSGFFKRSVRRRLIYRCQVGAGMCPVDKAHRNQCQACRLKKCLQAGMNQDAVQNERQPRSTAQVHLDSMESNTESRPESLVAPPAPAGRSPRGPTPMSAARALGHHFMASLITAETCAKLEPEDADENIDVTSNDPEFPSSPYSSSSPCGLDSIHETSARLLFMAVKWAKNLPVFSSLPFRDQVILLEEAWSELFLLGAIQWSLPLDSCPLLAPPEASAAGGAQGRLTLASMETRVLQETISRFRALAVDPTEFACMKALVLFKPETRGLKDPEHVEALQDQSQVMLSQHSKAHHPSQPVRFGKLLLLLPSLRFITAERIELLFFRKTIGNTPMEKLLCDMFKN
Galanin receptor type 3, sequence (O60755 whole entry): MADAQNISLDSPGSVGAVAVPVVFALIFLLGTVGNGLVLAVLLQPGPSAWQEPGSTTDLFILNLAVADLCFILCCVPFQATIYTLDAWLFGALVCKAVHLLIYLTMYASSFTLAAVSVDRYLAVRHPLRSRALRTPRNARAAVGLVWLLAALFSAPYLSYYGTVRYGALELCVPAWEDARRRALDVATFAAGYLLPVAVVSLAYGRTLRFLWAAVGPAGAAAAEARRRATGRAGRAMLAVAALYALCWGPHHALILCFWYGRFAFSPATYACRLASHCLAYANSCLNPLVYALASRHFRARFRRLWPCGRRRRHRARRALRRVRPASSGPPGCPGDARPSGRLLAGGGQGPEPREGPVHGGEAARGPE

CCN(CC)S(=O)(=O)c1ccc(NC(=O)Nc2cccc(C(F)(F)F)c2)cc1
EC50 [1]: > 120 µM (not active)
EC50 (HEK293 [2]): > 20 µM (inactive)
IC50 (HEK293 [3]): 3.14 µM (active)
EC50 [4]: 14.9 µM (active)
EC50 [5]: 11.1 µM (active)
IC50 (HEK293 [6]): 8.73 µM (active)
IC50 (HEK293 [7]): 4.48 µM (inactive)
EC50 [8]: 1.67 µM (active)
EC50 [9]: 4.56 µM (active)
EC50 [10]: > 60 µM (not active)
EC50 [11]: 6.35 µM (active)
AC50 [12]: 2.13 µM (active)
AC50 (INS1): 4.6 µM (active)
AC50 [13]: 5.6 µM (active)
AC50 [14]: 27.6 µM (active)
AC50 [15]: 10.8 µM (active)
IC50 [16]: 6.94 µM (active)
AC50 [17]: 9.67 µM (active)
AC50 [18]: 13.6 µM (active)
AC50 [19]: 10.3 µM (active)
AC50 [20]: 9.71 µM (active)
AC50 [21]: 5.75 µM (active)

CSc1ccc(CN2CCN(C(=O)c3ccc([N+](=O)[O-])cc3)CC2)cc1
IC50 (Galanin receptor type 3): 1.91 µM (active)
EC50 (cells [22]): > 29.9 µM (inactive)

COc1cc(CCNC2=CC(=O)c3ncccc3C2=O)ccc1O
CC50 [23]: 21.3 µM (active)
IC50 [24]: 62.2 µM (active)
AC50 [25]: 82.2 µM (active)
AC50 [26]: 1.24 µM (active)
IC50 [27]: 67.8 µM (inactive)

CC(=O)c1ccc(Nc2nc3ccc(C)cc3n3cnnc23)cc1
AC50 [21]: 0.551 µM (active)

C=CCNC(=S)NNC(=O)Cn1c(-c2ccccc2)cc(=O)n2ncnc12
AC50 [20]: 4.83 µM (active)

CCN1CN(CCc2ccccc2)CN=C1S
EC50 (cells [28]): > 350 µM (not active)
EC50 (cells [29]): > 350 µM (not active)
IC50 (cells [30]): > 29.9 µM (inactive)
EC50 (cells [31]): > 29.9 µM (inactive)
